Test results taken from US10889591B2, “PDE9 inhibitor and use thereof” (Nanjing TransThera Biosciences Co. Ltd., priority 2017, dated 2021).

Key:
[1] = Rat pharmacokinetic evaluation; format: in vivo, SD male rats; conditions: SD rat, intravenous bolus 1 mg/kg
[2] = Stability in human liver microsome; conditions: for CLint / k / Original drug residual % at 60 min / T1/2 (min): human liver microsome 0.5 mg protein/mL, compound 1 μM; for k: slope of log remaining amount versus time; for Original drug residual % at 60 min: β-NADPH 1 mM, 37° C.; for half-life at 1 μM: human, liver microsomes

SMILES | CLint [2] | k [2] [min⁻¹] | Original drug residual % at 60 min [2] [%] | half-life at 1 μM [2] [min] | Vz_obs iv (apparent distribution volume) [1] [L/kg] | AUC(0-t) ([1]; male, Sprague-Dawley, plasma, read-out: AUClast iv) [ng·h/mL] | clearance ([1]; male, Sprague-Dawley, plasma, read-out: Cl_obs iv (clearance rate) (converted)) [mL/min/kg] | half-life ([1]; male, Sprague-Dawley, plasma, read-out: tz1/2 iv (terminal elimination half-life) (converted)) [min] | T1/2 (min) [2]
CNC(=O)c1cc2c(N3CCC4(CC3)CC4)c(C#N)c(=O)[nH]c2cn1 [Compound 96, 3-cyano-N-methyl-2-oxo-4-(6-azaspiro[2.5]octane-6-yl)-1,2-dihydro-1,7-naphthyridin-6-formamide] | – | – | – | – | 0.57 | 769 | 22 | 18 | –
N#Cc1c(N2CCC3(CC2)CC3)c2cc(C(O)CO)ncc2[nH]c1=O (stereo not drawn) [Compound 32, 6-(1,2-dihydroxyethyl)-2-oxo-4-(6-azaspiro[2.5]octane-6-yl)-1,2-dihydro-1,7-naphthyridin-3-carbonitrile] | – | -0.3760 | 99.8 | – | – | – | – | – | →∞
COc1cc2c(N3CCC4(CCC4)CC3)c(C#N)c(=O)[nH]c2cn1 [Compound 66, 6-methoxy-2-oxo-4-(7-azaspiro[3.5]nonane-7-yl)-1,2-dihydro-1,7-naphthyridin-3-carbonitrile] | – | -0.515 | 101 | – | – | – | – | – | –
N#Cc1c(N2CC[C@@H](n3cccn3)C2)c2ccncc2[nH]c1=O [Compound 19, (R)-4-(3-(1H-pyrazol-1-yl)pyrrolidin-1-yl)-2-oxo-1,2-dihydro-1,7-naphthyridin-3-carbonitrile] | 0.0012 mL · min^−1 · mg^−1 proteins | 0.191 | 93.4 | 1160 | – | – | – | – | –
N#Cc1c(N2CCC3(CC2)CC3)c2cc(C(=O)O)ncc2[nH]c1=O [Compound 83, 3-cyano-2-oxo-4-(6-azaspiro[2.5]octane-6-yl)-1,2-dihydro-1,7-naphthyridin-6-carboxylic acid] | – | 0.5421 | 104.1 | – | – | – | – | – | →∞
N#Cc1c(Nc2ccc(Cl)cc2)c2ccncc2[nH]c1=O [Compound 18, 4-((4-chlorophenyl)amino)-2-oxo-1,2-dihydro-1,7-naphthyridin-3-carbonitrile] | 0.1244 mL · min^−1 · mg^−1 proteins | 0.727 | 5.19 | 11.1 | – | – | – | – | –

More lines, main results first:

CLint [2] | k [2] [min⁻¹] | Original drug residual % at 60 min [2] [%] | half-life at 1 μM [2] [min] | SMILES | Vz_obs iv (apparent distribution volume) [1] [L/kg] | AUC(0-t) ([1]; male, Sprague-Dawley, plasma, read-out: AUClast iv) [ng·h/mL] | clearance ([1]; male, Sprague-Dawley, plasma, read-out: Cl_obs iv (clearance rate) (converted)) [mL/min/kg] | half-life ([1]; male, Sprague-Dawley, plasma, read-out: tz1/2 iv (terminal elimination half-life) (converted)) [min] | T1/2 (min) [2]
0.0026 mL · min^−1 · mg^−1 proteins | 0.0013 | 92.6 | 533 | COC1(C)CCN(c2c(C#N)c(=O)[nH]c3cnc(C)cc23)CC1 [Compound 158, 4-(4-methoxy-4-methylpiperidin-1-yl)-6-methyl-2-oxo-1,2-dihydro-1,7-naphthyridin-3-carbonitrile] | – | – | – | – | –
0.0020 mL · min^−1 · mg^−1 proteins | 0.4444 | 91.9 | 693 | COC1(C)CCN(c2c(C#N)c(=O)[nH]c3cnc(C(C)(C)O)cc23)CC1 [Compound 109, 6-(2-hydroxypropan-2-yl)-4-(4-methoxy-4-methylpiperidin-1-yl)-2-oxo-1,2-dihydro-1,7-naphthyridine-3-carbonitrile] | – | – | – | – | –
0.0038 mL · min^−1 · mg^−1 proteins | 0.0019 | 88.2 | 365 | COCCOc1cc2c(N3CCC(C)(OC)CC3)c(C#N)c(=O)[nH]c2cn1 [Compound 145, 4-(4-methoxy-4-methylpiperidin-1-yl)-6-(2-methoxyethoxy)-2-oxo-1,2-dihydro-1,7-naphthyridin-3-carbonitrile] | – | – | – | – | –
0.0024 mL · min^−1 · mg^−1 proteins | 0.0012 | 94.6 | 578 | COC1(C)CCN(c2c(C#N)c(=O)[nH]c3cnccc23)CC1 [Compound 81, 4-(4-methoxy-4-methylpiperidin-1-yl)-2-oxo-1,2-dihydro-1,7-naphthyridin-3-carbonitrile] | – | – | – | – | –
